The record followed here is patent publication US11759455B2, “Substituted 1H-imidazo[4,5-b]pyridin-2(3H)-ones and their use as GLUN2B receptor modulators” (JANSSEN PHARMACEUTICA NV, priority 2016, dated 2023).

One may read the IC50 as the concentration that gives 50% inhibition.

The target of one experiment is T1, human GluN1/GluN2B NMDA receptors (Homo sapiens, UniProt Q13224).
T1 construct: expressed in transfected cells
T1 sequence (Q13224 27-1484, other chains not shown): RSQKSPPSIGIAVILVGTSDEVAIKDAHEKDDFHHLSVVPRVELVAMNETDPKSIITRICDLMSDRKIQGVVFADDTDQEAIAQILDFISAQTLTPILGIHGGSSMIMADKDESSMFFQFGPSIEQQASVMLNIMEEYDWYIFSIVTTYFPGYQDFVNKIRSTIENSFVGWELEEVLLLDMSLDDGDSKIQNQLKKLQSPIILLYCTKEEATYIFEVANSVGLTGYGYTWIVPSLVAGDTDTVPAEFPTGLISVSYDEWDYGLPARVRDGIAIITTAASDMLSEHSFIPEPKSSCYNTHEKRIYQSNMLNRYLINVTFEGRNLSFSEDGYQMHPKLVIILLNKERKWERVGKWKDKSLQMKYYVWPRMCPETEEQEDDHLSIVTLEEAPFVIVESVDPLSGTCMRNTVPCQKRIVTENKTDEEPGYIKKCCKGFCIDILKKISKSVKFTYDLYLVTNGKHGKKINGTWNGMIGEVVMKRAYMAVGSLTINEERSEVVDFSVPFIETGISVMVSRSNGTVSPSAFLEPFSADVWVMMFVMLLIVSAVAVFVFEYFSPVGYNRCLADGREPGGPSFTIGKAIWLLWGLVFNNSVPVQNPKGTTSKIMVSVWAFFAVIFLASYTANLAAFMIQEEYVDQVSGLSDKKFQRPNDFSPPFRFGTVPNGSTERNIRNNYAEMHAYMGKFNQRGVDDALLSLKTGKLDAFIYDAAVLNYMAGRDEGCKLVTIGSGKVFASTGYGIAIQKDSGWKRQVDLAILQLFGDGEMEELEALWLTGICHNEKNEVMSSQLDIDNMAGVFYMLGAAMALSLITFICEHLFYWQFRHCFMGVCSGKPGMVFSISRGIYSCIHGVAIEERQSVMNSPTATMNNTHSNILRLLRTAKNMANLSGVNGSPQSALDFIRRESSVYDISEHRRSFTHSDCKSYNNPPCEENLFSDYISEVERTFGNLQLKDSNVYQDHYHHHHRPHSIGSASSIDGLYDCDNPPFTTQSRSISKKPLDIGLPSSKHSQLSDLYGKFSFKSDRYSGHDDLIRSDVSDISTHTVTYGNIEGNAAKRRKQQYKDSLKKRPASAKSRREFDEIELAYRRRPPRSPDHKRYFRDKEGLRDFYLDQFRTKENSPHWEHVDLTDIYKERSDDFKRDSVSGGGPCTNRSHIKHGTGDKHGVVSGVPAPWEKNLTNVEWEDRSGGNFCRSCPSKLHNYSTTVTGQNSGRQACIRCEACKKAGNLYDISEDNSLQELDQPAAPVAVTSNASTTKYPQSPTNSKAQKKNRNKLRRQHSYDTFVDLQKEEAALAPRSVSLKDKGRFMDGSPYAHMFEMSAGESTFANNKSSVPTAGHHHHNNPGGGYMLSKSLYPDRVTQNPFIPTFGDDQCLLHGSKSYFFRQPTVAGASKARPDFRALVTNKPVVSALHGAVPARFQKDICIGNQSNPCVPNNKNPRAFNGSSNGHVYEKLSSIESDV
Kind of experiment: Cell-based calcium flux (FLIPR) assay on cloned human NR1/NR2B ion channels expressed in mammalian cells (standard and HTS buffer variants).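 Further: stable Tet-On inducible cell line, Ca2+ influx triggered by glutamate at about EC40 plus 10 µM glycine, fluorescent dye read-out over 5 min, normalized to control wells.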 Conditions: standard assay buffer (0.5 mM MgCl2 dye loading; 137 mM NaCl, 4 mM KCl assay buffer), human GluN1/GluN2B cells, read-out: NR2B IC50 (μM) standard assay. In general terms: Calcium flux is commonly read through the fluorescence of an indicator in the cells.
For the molecule `O=c1[nH]c2ncc(-c3cccc(F)c3F)cc2n1Cc1cncc(F)c1` [Example 303, 6-(2,3-Difluorophenyl)-1-[(5-fluoro-3-pyridyl)methyl]-3H-imidazo[4,5-b]pyridin-2-one], the IC50 turned out to be 0.03 µM.

Take `O=c1[nH]c2ncc(-c3cccc(OC(F)F)c3)cc2n1Cc1cncc(F)c1` [Example 304, 6-[3-(Difluoromethoxy)phenyl]-1-[(5-fluoro-3-pyridyl)methyl]-3H-imidazo[4,5-b]pyridin-2-one]: the half-maximal inhibitory concentration (IC50) is 0.021 µM. Turning to `O=c1[nH]c2ncc(-c3cccc(Cl)c3)cc2n1Cc1cncc(F)c1` [Example 305, 6-(3-Chlorophenyl)-1-[(5-fluoro-3-pyridyl)methyl]-3H-imidazo[4,5-b]pyridin-2-one], the IC50 amounted to 0.013 µM.

`Cc1cc(-c2cnc3[nH]c(=O)n(Cc4cncc(F)c4)c3c2)ccc1Cl` [Example 306, 6-(4-Chloro-3-methyl-phenyl)-1-[(5-fluoro-3-pyridyl)methyl]-3H-imidazo[4,5-b]pyridin-2-one]: the IC50 is 0.086 µM. In the case of `O=c1[nH]c2ncc(-c3cccc(OC(F)(F)F)c3)cc2n1Cc1cncc(F)c1` [Example 307, 1-[(5-Fluoro-3-pyridyl)methyl]-6-[3-(trifluoromethoxy)phenyl]-3H-imidazo[4,5-b]pyridin-2-one], the IC50 was found to be 0.088 µM. As to `Cc1cncc(Cn2c(=O)[nH]c3ncc(-c4cc(F)c(F)c(F)c4)cc32)c1` [Example 308, 1-[(5-Methyl-3-pyridyl)methyl]-6-(3,4,5-trifluorophenyl)-3H-imidazo[4,5-b]pyridin-2-one], the half-inhibitory concentration (IC50) was 0.03 µM. For `Cc1cncc(Cn2c(=O)[nH]c3ncc(-c4ccc(F)c(C(F)(F)F)c4)cc32)c1` [Example 309, 6-[4-Fluoro-3-(trifluoromethyl)phenyl]-1-[(5-methyl-3-pyridyl)methyl]-3H-imidazo[4,5-b]pyridin-2-one], the half-maximal inhibitory concentration (IC50) was 0.316 µM. As for `Cc1cncc(Cn2c(=O)[nH]c3ncc(-c4cccc(F)c4F)cc32)c1` [Example 310, 6-(2,3-Difluorophenyl)-1-[(5-methyl-3-pyridyl)methyl]-3H-imidazo[4,5-b]pyridin-2-one], the IC50 is 0.088 µM. Consider `Cc1cncc(Cn2c(=O)[nH]c3ncc(-c4cc(F)cc(F)c4)cc32)c1` [Example 311, 6-(3,5-Difluorophenyl)-1-[(5-methyl-3-pyridyl)methyl]-3H-imidazo[4,5-b]pyridin-2-one], for which the IC50 amounted to 0.028 µM. For the molecule `Cc1ccncc1Cn1c(=O)[nH]c2ncc(-c3cc(F)c(F)c(F)c3)cc21` [Example 312, 1-[(4-Methyl-3-pyridyl)methyl]-6-(3,4,5-trifluorophenyl)-3H-imidazo[4,5-b]pyridin-2-one], the concentration for half-maximal inhibition (IC50) turned out to be 0.002 µM.

Regarding `Cc1ccncc1Cn1c(=O)[nH]c2ncc(-c3cccc(C(F)(F)F)c3)cc21` [Example 313, 1-[(4-Methyl-3-pyridyl)methyl]-6-[3-b]pyridin-2-one], the IC50 stood at 0.018 µM. The same measure, in the same setting: in the case of `Cc1ccncc1Cn1c(=O)[nH]c2ncc(-c3ccc(F)c(C(F)(F)F)c3)cc21` [Example 314, 6-[4-Fluoro-3-(trifluoromethyl)phenyl]-1-[(4-methyl-3-pyridyl)methyl]-3H-imidazo[4,5-b]pyridin-2-one] it was 0.049 µM; in that of `Cc1cccnc1Cn1c(=O)[nH]c2ncc(-c3cccc(C(F)(F)F)c3)cc21` [Example 315, 1-[(3-Methyl-2-pyridyl)methyl]-6-[3-(trifluoromethyl)phenyl]-3H-imidazo[4,5-b]pyridin-2-one], above 10 µM; in that of `Cc1cc(-c2cnc3[nH]c(=O)n(Cc4ncccc4C)c3c2)ccc1F` [Example 316, 6-(4-Fluoro-3-methyl-phenyl)-1-[(3-methyl-2-pyridyl)methyl]-3H-imidazo[4,5-b]pyridin-2-one], 0.114 µM.

Still in this experiment, the particulars now being: standard assay buffer (0.5 mM MgCl2 in dye loading buffer; 137 mM NaCl, 4 mM KCl in assay buffer), human GluN1/GluN2B, read-out: NR2B IC50 (μM) standard assay.
For the molecule `Cc1cccnc1Cn1c(=O)[nH]c2ncc(-c3ccc(F)c(C)c3F)cc21` [Example 317, 6-(2,4-Difluoro-3-methyl-phenyl)-1-[(3-methyl-2-pyridyl)methyl]-3H-imidazo[4,5-b]pyridin-2-one], the IC50 stood at 0.046 µM. Regarding `Cc1cccnc1Cn1c(=O)[nH]c2ncc(-c3cc(F)cc(F)c3)cc21` [Example 318, 6-(3,5-Difluorophenyl)-1-[(3-methyl-2-pyridyl)methyl]-3H-imidazo[4,5-b]pyridin-2-one], the IC50 was above 10 µM. The same measure, in the same setting: next, `Cc1cccnc1Cn1c(=O)[nH]c2ncc(-c3cccc(F)c3F)cc21` [Example 319, 6-(2,3-Difluorophenyl)-1-[(3-methyl-2-pyridyl)methyl]-3H-imidazo[4,5-b]pyridin-2-one]: above 10 µM; `Cc1cc(F)ccc1-c1cnc2[nH]c(=O)n(CC(=O)N3CCC3)c2c1` [Example 320, 1-[2-(Azetidin-1-yl)-2-oxo-ethyl]-6-(4-fluoro-2-methyl-phenyl)-3H-imidazo[4,5-b]pyridin-2-one]: 0.075 µM. Still for that read-out and setting: next, `Cc1cc(-c2cnc3[nH]c(=O)n(CC(=O)N(C)C)c3c2)sc1Cl` [Example 321, 2-[6-(5-Chloro-4-methyl-2-thienyl)-2-oxo-3H-imidazo[4,5-b]pyridin-1-yl]-N,N-dimethyl-acetamide]: 0.014 µM. In the case of `Cc1cc(-c2cnc3c(c2)n(CC(=O)N(C)C)c(=O)n3C)sc1Cl` [Example 322, 2-[6-(5-Chloro-4-methyl-2-thienyl)-3-methyl-2-oxo-imidazo[4,5-b]pyridin-1-yl]-N,N-dimethyl-acetamide], the IC50 came to 0.023 µM. As to `O=C(Cn1c(=O)[nH]c2ncc(-c3ccc(C(F)(F)F)s3)cc21)N1CCC1` [Example 323, 1-[2-(azetidin-1-yl)-2-oxo-ethyl]-6-[5-(trifluoromethyl)-2-thienyl]-3H-imidazo[4,5-b]pyridin-2-one], the IC50 turned out to be 0.041 µM.

Take `Cc1cc(-c2cnc3[nH]c(=O)n(CC(=O)N4CCC4)c3c2)sc1Cl` [Example 324, 1-[2-(Azetidin-1-yl)-2-oxo-ethyl]-6-(5-chloro-4-methyl-2-thienyl)-3H-imidazo[4,5-b]pyridin-2-one]: the IC50 was determined as 0.015 µM. Take `Cc1ccc(-c2cnc3c(c2)n(CC(=O)N2CCC2)c(=O)n3C)s1` [Example 326, 1-[2-(Azetidin-1-yl)-2-oxo-ethyl]-3-methyl-6-(5-methyl-2-thienyl)imidazo[4,5-b]pyridin-2-one]: the half-inhibitory concentration (IC50) was found to be 0.022 µM.

As to `Cn1c(=O)n(CC(=O)N2CC(F)C2)c2cc(-c3ccc(C(F)(F)F)s3)cnc21` [Example 327, 1-[2-(3-Fluoroazetidin-1-yl)-2-oxo-ethyl]-3-methyl-6-[5-(trifluoromethyl)-2-thienyl]imidazo[4,5-b]pyridin-2-one], the IC50 was determined as 0.071 µM.

In the case of `Cn1c(=O)n(CC(=O)N2CCCC2)c2cc(-c3ccc(C(F)(F)F)s3)cnc21` [Example 328, 3-Methyl-1-(2-oxo-2-pyrrolidin-1-yl-ethyl)-6-[5-(trifluoromethyl)-2-thienyl]imidazo[4,5-b]pyridin-2-one], the IC50 amounted to 0.079 µM.

As for `Cc1c(-c2cnc3[nH]c(=O)n(CC(=O)N4CCC4)c3c2)cccc1C(F)(F)F` [Example 329, 1-[2-(Azetidin-1-yl)-2-oxo-ethyl]-6-[2-methyl-3-(trifluoromethyl)phenyl]-3H-imidazo[4,5-b]pyridin-2-one], the 50% inhibitory concentration (IC50) turned out to be 0.75 µM. On the same count and under the same terms, next, `CCC(=O)Cn1c(=O)[nH]c2ncc(-c3ccc(F)c(F)c3)cc21` [Example 330, 6-(3,4-Difluorophenyl)-1-(2-oxobutyl)-3H-imidazo[4,5-b]pyridin-2-one]: 0.004 µM; `CCC(=O)Cn1c(=O)[nH]c2ncc(-c3ccc(F)c(C)c3)cc21` [Example 331, 6-(4-Fluoro-3-methyl-phenyl)-1-(2-oxobutyl)-3H-imidazo[4,5-b]pyridin-2-one]: 0.012 µM. Same read-out and setting: next, `CCC(=O)Cn1c(=O)[nH]c2ncc(-c3cccc(C)c3)cc21` [Example 332, 6-(m-Tolyl)-1-(2-oxobutyl)-3H-imidazo[4,5-b]pyridin-2-one]: 0.036 µM; `Cc1c(F)ccc(-c2cnc3c(c2)n(Cc2cccnc2)c(=O)n3C)c1F` [Example 339, 6-(2,4-Difluoro-3-methyl-phenyl)-3-methyl-1-(3-pyridylmethyl)imidazo[4,5-b]pyridin-2-one]: 0.034 µM. With `Cc1cc(-c2cnc3c(c2)n(Cc2cncc(F)c2)c(=O)n3C)ccc1F` [Example 340, 6-(4-Fluoro-3-methyl-phenyl)-1-[(5-fluoro-3-pyridyl)methyl]-3-methyl-imidazo[4,5-b]pyridin-2-one], the IC50 was 0.052 µM.

In the case of `Cc1c(F)ccc(-c2cnc3c(c2)n(Cc2cncc(F)c2)c(=O)n3C)c1F` [Example 341, 6-(2,4-Difluoro-3-methyl-phenyl)-1-[(5-fluoro-3-pyridyl)methyl]-3-methyl-imidazo[4,5-b]pyridin-2-one], the half-inhibitory concentration (IC50) worked out at 0.081 µM. Take `Cn1c(=O)n(Cc2cncc(F)c2)c2cc(-c3cccc(OC(F)F)c3)cnc21` [Example 342, 6-[3-(Difluoromethoxy)phenyl]-1-[(5-fluoro-3-pyridyl)methyl]-3-methyl-imidazo[4,5-b]pyridin-2-one]: the IC50 was determined as 0.138 µM. Turning to `Cn1c(=O)n(Cc2cncc(F)c2)c2cc(-c3ccc(F)c(F)c3)cnc21` [Example 343, 6-(3,4-Difluorophenyl)-1-[(5-fluoro-3-pyridyl)methyl]-3-methyl-imidazo[4,5-b]pyridin-2-one], the IC50 came out at 0.256 µM.

`Cn1c(=O)n(Cc2cncc(F)c2)c2cc(-c3cc(F)c(F)c(F)c3)cnc21` [Example 344, 1-[(5-Fluoro-3-pyridyl)methyl]-3-methyl-6-(3,4,5-trifluorophenyl)imidazo[4,5-b]pyridin-2-one]: the IC50 stood at 0.518 µM. Regarding `Cn1c(=O)n(Cc2cncc(F)c2)c2cc(-c3cccc(OC(F)(F)F)c3)cnc21` [Example 345, 1-[(5-Fluoro-3-pyridyl)methyl]-3-methyl-6-[3-(trifluoromethoxy)phenyl]imidazo[4,5-b]pyridin-2-one], the 50% inhibitory concentration (IC50) turned out to be 0.778 µM. With `Cn1c(=O)n(Cc2cncc(F)c2)c2cc(-c3cccc(F)c3F)cnc21` [Example 346, 6-(2,3-Difluorophenyl)-1-[(5-fluoro-3-pyridyl)methyl]-3-methyl-imidazo[4,5-b]pyridin-2-one], the IC50 is 0.225 µM.
